Experiments:
beagle dog hepatocytes = test: Metabolic stability in dog hepatocytes; assay type: in vitro ADME; conditions: 2 μM compound
Outline: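 Pooled cryopreserved beagle hepatocytes at 500,000 cells/mL in Krebs-Henseleit buffer with 2 μM compound, 37 °C, 5% CO2, sampled out to 180 min. Acetonitrile-quenched samples analysed by LC-MS/MS; percent remaining from peak area versus time zero.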

Caco-2 cells = test: Caco-2 cell permeability assay; assay type: in vitro ADME, human; conditions: Papp, 10 μM, 37° C.
Outline: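 Caco-2 monolayers (days 21-25 post-seeding) received 10 μM compound in HBSS-MES pH 6.5 or HBSS-HEPES pH 7.4 (1% DMSO) at 37 °C, for 60 min A-B or 40 min B-A. Donor and receiver samples were quantified by HPLC-MS/MS (SRM), and Papp and recovery were calculated.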

human plasma protein = test: Plasma protein binding by equilibrium dialysis; assay type: in vitro ADME; conditions: pooled human plasma, 10 μM, 4 hours at 37° C.
Outline: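 Pooled mixed-gender human plasma spiked with compound at 10 μM was dialysed against PBS pH 7.4 for 4 h at 37°C. Both compartments were quantified by HPLC-MS/MS, and % bound was calculated from plasma vs buffer peak areas.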

Dog Hepatocyte Stability (t1/2) (beagle dog hepatocytes): N (“N” indicates > 240 min)
Caco-2 Permeability (A-B) (Caco-2 cells; apical to basolateral, 60 min): P (“P” indicates < 10 × 10^−6 cm/s)
Caco-2 Permeability (B-A) (Caco-2 cells; basolateral to apical, 40 min): Q (“Q” indicates 11-30 × 10^−6 cm/s)
PPB (%) (human plasma protein): Z (“Z” indicates 50-90%)
Substance: (2S,3R)-3-((2-amino-6-methylpyridin-4-yl)methyl)-N2-(1-methyl-1H-imidazol-2-yl)-N1-((R)-1-(3-fluorophenyl)propyl)-N2-methyl-4-oxoazetidine-1,2-dicarboxamide [Compound 1-120]
